Tests used:
Assay type in all cases: cell-based
[1] = system: E. faecalis ATCC29212; test: MIC of antibiotics with or without PAG/AOAA; conditions: for MIC: Enterococcus faecalis, ATCC29212, read-out: Minimum inhibitory concentration
Method: Bacterial cultures were prepared at initial inoculums of ˜5×10^5 CFU/ml, and aliquots of 190 μl per well were dispensed. Ten μl of the indicated antibiotic solutions were added to each well. The starting concentration for each antibiotic solution was 2×MIC, with serial ½ dilutions. Two sets of dilutions were prepared, and 0.1 mM AOAA was added to one set. The plates were kept at 37° C. and 85% humidity for 20 hours.
(§1) E. faecalis (ATCC 29212) cultures were prepared at initial inoculums of ˜5×10^5 CFU/ml in Mueller-Hinton II Broth (cation-adjusted). Aliquots of 190 μl were dispensed to each well of a fresh set of plates, and 10 μl of an antibiotic solution (levofloxacin, meropenem, gentamicin, piperacillin, linezolid, cefepime, daptomycin, vancomycin, or chloramphemicol) were transferred to the corresponding wells in each bacterial plate (FIG. 13). For each antibiotic, the starting concentration was 2×MIC (minimum inhibitory concentration) with serial ½ dilutions. Two sets of dilutions were prepared, and to one of them 0.1 mM AOAA was added. The resulting plates were kept at 37° C. and 85% humidity for 20 hours. All nine antibiotics tested were potentiated by AOAA, with respective MICs dropped from 8-fold to 32-fold (FIG. 13).
(§2) Minimum inhibitory concentration (MIC) determination was conducted as described in Example 7, above. To assess antibiotic potentiation by AOAA and PAG, MIC was determined for nine antibiotics (levofloxacin, meropenem, gentamicin, piperacillin, linezolid, cefepime, daptomycin, vancomycin, and chloramphemicol) and four bacterial strains (E. faecium (A2373), E. faecalis ([…]), S. pneumoniae (ATCC 49619), and P. aeruginosa (PAO1)) in the presence of antibiotic alone, 1 mM PAG, 0.1 mM AOAA, or 0.5 mM PAG+0.05 mM AOAA. The smaller the MIC value, the stronger the effect of antibiotic potentiation.

[2] = system: P. aeruginosa PAO1; test: MIC of antibiotics with or without PAG/AOAA; conditions: for MIC: Pseudomonas aeruginosa, PAO1, read-out: Minimum inhibitory concentration
Method: as §2

[3] = system: S. pneumoniae ATCC49619; test: MIC of antibiotics with or without PAG/AOAA; conditions: for MIC: Streptococcus pneumoniae, ATCC49619, read-out: Minimum inhibitory concentration
Method: as §2

[4] = system: E. faecium A2373; test: MIC of antibiotics with or without PAG/AOAA; conditions: for MIC: Enterococcus faecium, A2373, read-out: Minimum inhibitory concentration
Method: as §1, §2

[5] = system: E. coli ΔsseA (3MST-deficient) strain; conditions: Table 1; relative values of growth inhibition (negative numbers), ΔsseA vs wt E. coli
[6] = in the presence of 0.5 mM PAG + 0.05 mM AOAA

Row | Molecule | Minimum inhibitory concentration ([1]; in the presence of 0.1 mM AOAA) | Minimum inhibitory concentration [1, 6] | Minimum inhibitory concentration ([1]; in the presence of 1 mM PAG) | Minimum inhibitory concentration ([2]; in the presence of 0.1 mM AOAA) | Minimum inhibitory concentration [2, 6] | Minimum inhibitory concentration ([2]; in the presence of 1 mM PAG) | Minimum inhibitory concentration ([3]; in the presence of 0.1 mM AOAA) | Minimum inhibitory concentration [3, 6] | Minimum inhibitory concentration ([3]; in the presence of 1 mM PAG) | Minimum inhibitory concentration ([4]; in the presence of 0.1 mM AOAA) | Minimum inhibitory concentration [4, 6] | Minimum inhibitory concentration ([4]; in the presence of 1 mM PAG) | ΔsseA inhibition of growth [5] | other results
1 | CO/N=C(\C(=O)N[C@@H]1C(=O)N2C(C(=O)[O-])=C(C[N+]3(C)CCCC3)CS[C@H]12)c1csc(N)n1 [Cetepine, cefepime] | 2 µg/mL | 8 µg/mL | 32 µg/mL | 2 µg/mL | 1 µg/mL | 2 µg/mL | 0.125 µg/mL | 0.125 µg/mL | 0.125 µg/mL | >64 µg/mL | >64 µg/mL | >64 µg/mL | – | Minimum inhibitory concentration ([1]; antibiotic alone): 32 µg/mL; Minimum inhibitory concentration ([2]; antibiotic alone): 2 µg/mL; Minimum inhibitory concentration ([3]; antibiotic alone): 0.125 µg/mL; Minimum inhibitory concentration ([4]; antibiotic alone): >64 µg/mL
2 | CCCCCCCCCC(=O)N[C@@H](Cc1c[nH]c2ccccc12)C(=O)N[C@H](CC(N)=O)C(=O)N[C@@H](CC(=O)O)C(=O)N[C@@H]1C(=O)NCC(=O)N[C@@H](CCCN)C(=O)N[C@@H](CC(=O)O)C(=O)N[C@H](C)C(=O)N[C@@H](CC(=O)O)C(=O)NCC(=O)N[C@H](CO)C(=O)N[C@@H]([C@H](C)CC(=O)O)C(=O)N[C@@H](CC(=O)c2ccccc2N)C(=O)O[C@@H]1C [Daptomycin, daptomycin] | ≦0.06 μg/ml | 1 µg/mL | 2 µg/mL | >64 µg/mL | >64 µg/mL | >64 µg/mL | 0.063 µg/mL | 0.125 µg/mL | 0.125 µg/mL | ≦1 μg/ml | 4 µg/mL | 2 µg/mL | – | MIC ([1]; antibiotic alone): 2 µg/mL; MIC ([2]; antibiotic alone): > 64 µg/mL; MIC ([3]; antibiotic alone): 0.125 µg/mL; MIC ([4]; antibiotic alone): 4 µg/mL
3 | C[C@H]1COc2c(N3CCN(C)CC3)c(F)cc3c(=O)c(C(=O)O)cn1c23 [Levoflaxacin, levofloxacin] | 0.125 µg/mL | 0.5 µg/mL | 1 µg/mL | 0.5 µg/mL | 0.5 µg/mL | 0.5 µg/mL | 0.5 µg/mL | 0.5 µg/mL | 1 µg/mL | 2 µg/mL | 2 µg/mL | 2 µg/mL | – | MIC ([1]; antibiotic alone): 1 µg/mL; MIC ([2]; antibiotic alone): 0.5 µg/mL; MIC ([3]; antibiotic alone): 2 µg/mL; MIC ([4]; antibiotic alone): 2 µg/mL
4 | CC(=O)NC[C@H]1CN(c2ccc(N3CCOCC3)c(F)c2)C(=O)O1 [Linezold, linezolid] | 0.25 µg/mL | 2 µg/mL | 4 µg/mL | >64 µg/mL | >64 µg/mL | >64 µg/mL | 0.5 µg/mL | 1 µg/mL | 2 µg/mL | 2 µg/mL | 4 µg/mL | 4 µg/mL | – | MIC ([1]; antibiotic alone): 4 µg/mL; MIC ([2]; antibiotic alone): > 64 µg/mL; MIC ([3]; antibiotic alone): 2 µg/mL; MIC ([4]; antibiotic alone): 4 µg/mL
5 | C[C@@H](O)[C@H]1C(=O)N2C(C(=O)O)=C(S[C@@H]3CN[C@H](C(=O)N(C)C)C3)[C@H](C)[C@H]12 [Meropenom, meropenem] | 0.25 µg/mL | 1 µg/mL | 4 µg/mL | 0.5 µg/mL | 0.5 µg/mL | 0.5 µg/mL | 0.063 µg/mL | 0.063 µg/mL | 0.063 µg/mL | 6 µg/mL | >64 µg/mL | >64 µg/mL | – | Minimum inhibitory concentration ([1]; antibiotic alone): 4 µg/mL; Minimum inhibitory concentration ([2]; antibiotic alone): 1 µg/mL; Minimum inhibitory concentration ([3]; antibiotic alone): 0.125 µg/mL; Minimum inhibitory concentration ([4]; antibiotic alone): >64 µg/mL
6 | CCN1CCN(C(=O)N[C@@H](C(=O)N[C@@H]2C(=O)N3[C@@H]2SC(C)(C)[C@@H]3C(=O)O)c2ccccc2)C(=O)C1=O [Piperacilin, piperacillin] | 0.25 µg/mL | 1 µg/mL | 2 µg/mL | 4 µg/mL | 4 µg/mL | 4 µg/mL | 0.25 µg/mL | 0.5 µg/mL | 0.5 µg/mL | 6 µg/mL | >64 µg/mL | >64 µg/mL | – | Minimum inhibitory concentration ([1]; antibiotic alone): 2 µg/mL; Minimum inhibitory concentration ([2]; antibiotic alone): 4 µg/mL; Minimum inhibitory concentration ([3]; antibiotic alone): 0.5 µg/mL; Minimum inhibitory concentration ([4]; antibiotic alone): >64 µg/mL
7 | COc1cc(Cc2cnc(N)nc2N)cc(OC)c1OC [Trimethoprim] | – | – | – | – | – | – | – | – | – | – | – | – | −212 | –
8 | CO[C@H]1C[C@H](O[C@H]2[C@H](C)[C@@H](O[C@@H]3O[C@H](C)C[C@H](N(C)C)[C@H]3OC(C)=O)[C@@H](C)C[C@@]3(CO3)C(=O)[C@H](C)[C@@H](OC(C)=O)[C@@H](C)[C@@H](C)OC(=O)[C@@H]2C)O[C@@H](C)[C@@H]1OC(C)=O [Troleandomycin] | – | – | – | – | – | – | – | – | – | – | – | – | −203 | –
9 | CC[C@H]1OC(=O)C[C@@H](O)[C@H](C)[C@@H](O[C@@H]2O[C@H](C)[C@@H](O[C@H]3C[C@@](C)(O)[C@@H](O)[C@H](C)O3)[C@H](N(C)C)[C@H]2O)[C@@H](CC=O)C[C@@H](C)C(=O)/C=C/C(C)=C/[C@@H]1CO[C@@H]1O[C@H](C)[C@@H](O)[C@@H](OC)[C@H]1OC [Tylosin] | – | – | – | – | – | – | – | – | – | – | – | – | −520 | –
10 | Acriflavine | – | – | – | – | – | – | – | – | – | – | – | – | −295 | –
11 | Colistin | – | – | – | – | – | – | – | – | – | – | – | – | −102 | –
12 | Poly-L-lysine | – | – | – | – | – | – | – | – | – | – | – | – | −377 | –
13 | Polymyxin B | – | – | – | – | – | – | – | – | – | – | – | – | −231 | –
14 | Spiramycin | – | – | – | – | – | – | – | – | – | – | – | – | −235 | –
